{
  "source": "patent US5648355A",
  "about": "“Method of treatment of endogenous, painful gastrointestinal conditions of non-inflammatory, non-ulcerative origin” (priority 1994, dated 1997)",
  "key": {"rat mucosal mast cell": {"system": "rat mucosal mast cell", "assay": "inhibition of rat mucosal mast cell degranulation in vitro (histamine release)", "type": "cell-based", "conditions": "read-out: ID20 for histamine release", "description": "It is not necessary to the operability of the present invention that each member of the foregoing classes inhibits mast cell degranulation to the same extent. The ability of a particular substance to inhibit mast cell degranulation can be readily determined empirically. Thus, mast cells from rats (pieces of small intestine) or humans (intestinal biopsies) can be obtained; otherwise, RBL cells or immortalized human mucosal-like mast cells (HMC-1) are kept in culture. Any of these cells then are exposed to various concentrations of a putative inhibitory compound, to allow for action by the putative inhibitor at critical sites. Efficacy with respect to inhibition of mast cell degranulation then is ascertained; that is, the intestinal biopsies, explants or cultured cells thus treated are used as such or washed free of unbound test compound before exposure to a stimulus known to induce mast cell degranulation. A compound suitable for use in accordance with the present invention is recognized as one that prevents the stimulus from causing degranulation, presumably by binding to specific receptors or by inactivating a crucial step in the degranulation process.\nA pharmaceutically effective dose for a given mast cell degranulation-blocking agent can be approximated by its ID20, which is the dose necessary to cause 20% inhibition in mast cells when applied to mast cells stimulated in vitro."}, "abdominal migraine [1]": {"system": "abdominal migraine", "conditions": "in vivo; cited from earlier work"}, "irritable bowel syndrome": {"system": "irritable bowel syndrome", "assay": "patient treatment, irritable bowel syndrome", "type": "in vivo, human", "conditions": "person; for pain: two months"}, "[2]": {"system": "rat mucosal mast cell (MMC)", "assay": "RMCPII release from rat ileal explants, toxin A", "type": "cell-based", "conditions": "for RMCPII released, Ketotifen + Toxin A: ketotifen 1 mg/kg twice daily intragastrically 4 days, toxin A 5 μg/ml, n = 6", "experimental": "The following experiment was performed in order to evaluate rat mucosal mast cell (MMC) degranulation by measuring rat mast cell protease II (RMCPII), a specific marker for MMC, and by electron microscopy.\nRats were treated intragastrically for four (4) days with either 0.5 ml of saline containing ketotifen (1 mg/kg twice daily) or saline alone. On day five, the animals were euthanized, ileum was removed and ileal explants were placed in organ culture. The explants were incubated at 37° C. in a medium containing either 5 μg/ml of toxin A in 0.01 ml of 50 mM Tris buffer, or buffer alone. Aliquots (50 μl) of medium were collected at specified times and RMCPII levels were determined. Results are expressed in Table 4 as nanograms of RMCPII released per milligram of tissue wet weight (Pothoulakis et al., Gastroenterology 105:701-707, 1993)."}, "[3]": {"system": "rat mast cell protease II (RMCPII)", "assay": "rat-immobilization assay, stress model, intestinal RMCPII", "type": "in vivo", "conditions": "for rat intestinal RMCPII, pre-treated w/ ketotifen: 1 mg/kg i.p. twice daily for four days before immobilization, n = 3", "experimental": "An assay by which efficacy of a mast cell degranulation-blocking agent can be tested systemically in the present context is the rat-immobilization assay, […] After the immobilization, a specific gastrointestinal mast cell mediator, rat mast cell protease II (RMCPII), is measured. This assay is accepted as a non-ulcerogenic model of stress. See Williams et al., Am. J. PhysioI. 253:582-86 (1987).\nKetotifen was administered intraperitoneally to rats (1 mg/kg body weight, twice daily) for four days prior to immobilization."}, "PP2B": {"system": "PP2B", "conditions": "cited from earlier work"}, "Type 1 phosphatase (PP1)": {"system": "Type 1 phosphatase (PP1)", "conditions": "cited from earlier work"}, "PP2A": {"system": "PP2A", "conditions": "cited from earlier work"}, "PP2C": {"system": "PP2C", "conditions": "cited from earlier work"}, "abdominal migraine [4]": {"system": "abdominal migraine", "assay": "patient treatment, abdominal migraine", "type": "in vivo, human", "conditions": "person; 3 μg/day subcutaneous, four months", "experimental": "A patient with a two-year history of abdominal migraine, experienced constant gastrointestinal pain which was considerably worse immediately premenstrually. After treatment with the Gn-RH analogue LUPRON (3 μg/day subcutaneous injection) for four months, they were symptom-free."}, "mast cell": {"system": "mast cell", "conditions": "effective dose causing 20% secretion; cited from earlier work"}, "[5]": {"system": "rat basophilic leukemia (RBL) cells", "conditions": "Kouretas et al. 1991; cited from earlier work"}, "intracranial mast cells": {"system": "intracranial mast cells", "conditions": "cited from earlier work"}, "[6]": {"system": "gastrointestinal mast cells", "conditions": "cited from earlier work"}, "[7]": {"conditions": "inhibitory dose causing 20% inhibition, rat mucosal mast cells in vitro"}},
  "note": "“Also recorded” adds a separate entry of the source. Structures can show the parent of a compound that is named as a salt. Where two headings read alike, the source gives them in different places.",
  "data": [
    {"smiles": "CNCCc1c[nH]cn1", "note": "[N^α -methyl histamine]", "values": [
      {"measurement": "IC20", "setting": "rat mucosal mast cell; Rattus norvegicus", "result": 100, "unit": "nM"}
    ]},
    {"smiles": "CN1CCC(=C2c3ccccc3CCc3cccnc32)CC1", "note": "[Azatadine]", "values": [
      {"measurement": "IC20", "setting": "rat mucosal mast cell; [7]", "result": 100, "unit": "nM"}
    ]},
    {"smiles": "CC(C)NCC(O)COc1cccc2ccccc12", "note": "(centres unmarked) [propranolol]", "values": [
      {"measurement": "effect in abdominal migraine", "setting": "abdominal migraine [1]", "result": "seem not to work"}
    ]},
    {"smiles": "CN1CCC(=C2c3ccccc3CC(=O)c3sccc32)CC1", "note": "[Ketotifen]", "values": [
      {"measurement": "pain", "setting": "irritable bowel syndrome; 4 mg/day", "result": "their pain subsided significantly"},
      {"measurement": "IC20", "setting": "rat mucosal mast cell; Rattus norvegicus", "result": 10000, "unit": "nM"},
      {"measurement": "RMCPII released, Ketotifen + Toxin A", "setting": "[2]; 30 min", "result": "2.9 ± 1.0 nanograms of RMCPII released p"},
      {"measurement": "RMCPII released, Ketotifen + Toxin A", "setting": "[2]; 60 min, p < 0.05 vs Toxin A", "result": "3.0 ± 1.1 nanograms of RMCPII released p"},
      {"measurement": "RMCPII released, Ketotifen + Toxin A", "setting": "[2]; 120 min, p < 0.01 vs Toxin A", "result": "4.2 ± 0.9 nanograms of RMCPII released p"},
      {"measurement": "RMCPII released, Ketotifen + Toxin A", "setting": "[2]; 180 min, p < 0.01 vs Toxin A", "result": "6.7 ± 1.9 nanograms of RMCPII released p"},
      {"measurement": "release of RMCPII from rat ileal explants (in words)", "setting": "[2]; toxin A stimulus", "result": "effectively inhibits the release of RMCPII"},
      {"measurement": "rat intestinal RMCPII, pre-treated w/ ketotifen", "setting": "[3]; 60 min", "result": 0.5, "unit": "ng/mL"},
      {"measurement": "rat intestinal RMCPII, pre-treated w/ ketotifen", "setting": "[3]; 120 min, p < 0.001 vs. immobilized", "result": 0.8, "unit": "ng/mL"},
      {"measurement": "secretion of RMCPII during stress (in words)", "setting": "[3]; rat-immobilization assay", "result": "preventing secretion of RMCPII"}
    ]},
    {"smiles": "C=C1[C@@H](O)[C@@H]2O[C@]3(CC[C@H](/C=C/[C@@H](C)[C@@H]4CC(C)=C[C@@]5(O[C@H](C[C@@](C)(O)C(=O)O)CC[C@H]5O)O4)O3)CC[C@H]2O[C@@H]1[C@@H](O)C[C@H](C)[C@H]1O[C@@]2(CCCCO2)CC[C@H]1C", "note": "[okadaic acid]", "values": [
      {"measurement": "effect on PP2B", "setting": "PP2B", "result": "inhibited"},
      {"measurement": "effect on PP1", "setting": "Type 1 phosphatase (PP1)", "result": "inactivated"},
      {"measurement": "effect on PP2A", "setting": "PP2A", "result": "inhibited"},
      {"measurement": "effect on PP2C", "setting": "PP2C", "result": "insensitive"}
    ]},
    {"smiles": "OCCOCCN1CCN(C(c2ccccc2)c2ccc(Cl)cc2)CC1", "note": "(centres unmarked) [hydroxyzine hydrochloride]", "values": [
      {"measurement": "gastrointestinal discomfort", "setting": "irritable bowel syndrome; 50 mg/day, three months", "result": "almost completely eliminated"},
      {"measurement": "professional and family responsibilities", "setting": "irritable bowel syndrome; 50 mg/day, three months", "result": "able to resume their professional and family responsibilities"},
      {"measurement": "symptoms of irritable bowel syndrome on withdrawal", "setting": "irritable bowel syndrome; attempted withdrawal", "result": "marked increase in symptoms of irritable bowel syndrome"},
      {"measurement": "symptoms on resuming the medication", "setting": "irritable bowel syndrome; resumed medication", "result": "symptoms disappeared"}
    ]},
    {"smiles": "OCCOCCN1CCN(C(c2ccccc2)c2ccc(Cl)cc2)CC1", "note": "(centres unmarked) [hydroxyzine pamoate]", "values": [
      {"measurement": "professional activities", "setting": "irritable bowel syndrome; 50 mg/day, 4 months", "result": "able to resume their professional activities"},
      {"measurement": "symptoms of irritable bowel syndrome", "setting": "irritable bowel syndrome; 50 mg/day, 4 months", "result": "noticeable improvement of their symptoms"}
    ]},
    {"smiles": "CCNC(=O)[C@@H]1CCCN1C(=O)[C@H](CCCNC(=N)N)NC(=O)[C@H](CC(C)C)NC(=O)[C@@H](CC(C)C)NC(=O)[C@H](Cc1ccc(O)cc1)NC(=O)[C@H](CO)NC(=O)[C@H](Cc1c[nH]c2ccccc12)NC(=O)[C@H](Cc1c[nH]cn1)NC(=O)[C@@H]1CCC(=O)N1", "note": "[LUPRON, leuprolide acetate]", "values": [
      {"measurement": "symptoms of abdominal migraine", "setting": "abdominal migraine [4]", "result": "symptom-free"}
    ]},
    {"smiles": "CN(C)CCC(c1ccc(Cl)cc1)c1ccccn1", "note": "(centres unmarked) [Clorphenyramine]", "values": [
      {"measurement": "ED20 for Histamine Release", "setting": "mast cell", "result": "10^-3 M"}
    ]},
    {"smiles": "CC(=O)[C@H]1CC[C@H]2[C@@H]3CCC4=CC(=O)CC[C@]4(C)[C@H]3CC[C@]12C", "note": "[progesterone]", "values": [
      {"measurement": "binding to RBL cells", "setting": "[5]", "result": "bind"}
    ]},
    {"smiles": "O=C(O)c1cc(=O)c2c(OCC(O)COc3cccc4oc(C(=O)O)cc(=O)c34)cccc2o1", "note": "[disodium cromoglycate]", "values": [
      {"measurement": "inhibition of intracranial mast cells", "setting": "intracranial mast cells", "result": "inhibited"},
      {"measurement": "inhibition of gastrointestinal / mucosal mast cells", "setting": "[6]", "result": "the former but not the latter are inhibited; also recorded: do not have an inhibitory effect specifically on mucosal mast cells"}
    ]},
    {"smiles": "CC/C(=C(\\c1ccccc1)c1ccc(OCCN(C)C)cc1)c1ccccc1", "note": "[tamoxifen citrate]", "values": [
      {"measurement": "pain", "setting": "irritable bowel syndrome; 40 mg/day orally", "result": "substantially eliminated their pain"}
    ]},
    {"smiles": "CC(CN1c2ccccc2Sc2ccccc21)N(C)C", "note": "(centres unmarked) [Promethazine]", "values": [
      {"measurement": "ED20 for Histamine Release", "setting": "mast cell", "result": "10^-4 M"}
    ]},
    {"smiles": "O=c1[nH]c2ccccc2n1CCCN1CCN(C(c2ccccc2)c2ccccc2)CC1", "note": "[Oxatomide]", "values": [
      {"measurement": "IC20", "setting": "rat mucosal mast cell; [7]", "result": 100, "unit": "nM"}
    ]},
    {"smiles": "CN(C)CCOC(c1ccccc1)c1ccccc1", "note": "[Diphenhydramine]", "values": [
      {"measurement": "ED20 for Histamine Release", "setting": "mast cell", "result": "10^-3 M"}
    ]}
  ]
}
